Read-outs that look alike come from different tables or passages of the source.
Legend:
HSV-1 strain WT-51 = experiment: Cutaneous HSV-1 infection mouse model; format: in vivo, HR-1 hairless mouse; settings: 10 mg/kg twice a day for 5 days from 3 hours after infection, lesion score for 17 days
Protocol: Using a cutaneous HSV-1 infection mouse model prepared in accordance with the method of H. Machida et al. (Antiviral Res., 1992, 17, 133-143), in vivo activity of the compounds of the invention was tested. The skin of each HR-1 hairless mouse [female, 7 weeks of age] was scratched lengthwise and breadthwise several times using a needle and a virus suspension (HSV-1 strain WT-51, 1.5×10^4 PFU/15 μl) was droped to the scarified region for infection, while anesthetized with diethyl ether
Tested compounds were administered orally as a methyl cellulose suspension, except for compounds marked with asterisk which were dissolved in 20% Cremophor EL (Nakarai Tesuku)/20% polyethylene glycol (PEG) 400/60% H2O solution, starting at 3 hours after the infection, and then at a dose of 10 mg/kg twice a day for 5 days. The symptom of the skin lesion caused by HSV-1 infection were classified in the following scores for 17 days:
Score 0: no signs of infection.
Score 1: localized, barely perceptible small vesicles.
Score 2: slight vesicle spread.
Score 3: large patches of vesicles formed.
Score 4: zosteriform vesicles.
Score 5: large patches of ulcers formed.
Score 6: zosteriform with severe large ulcers.
Score 7: hind limb paralysis or death.
The AUC value was calculated from each group's mean disease score, and the disease inhibitory rate of the group administered with each test compound to the placebo group was calculated using the AUC.

HSV-1 (strain KOS) = experiment: Anti-HSV-1 activity assay (MTT, MRC-5 cells); format: cell-based; settings: HSV-1 strain KOS 50 TCID50/100 μl, 5 days culture, read-out: EC50 value (suppression of cellular death of MRC-5 cells via HSV-1 replication)
Protocol: 10,000 MRC-5 cells were inoculated and cultured in a 96-well microtiter plate, using the growth culture medium [Eagle MEM (Nissui) supplemented with 10% FBS] in 5% CO2 at 37° C. for 4 to 5 days until a monolayer was formed. After the cells were washed with the maintenance culture medium [Eagle MEM supplemented with 2% (v/v) FBS], 100 μl of the maintenance culture medium dissolving therein an appropriate concentration of a test reagent was added to each well. Immediately after the test drug was added, an HSV-1 (strain KOS) solution was inoculated at 50 TCID50 (50% tissue culture infectious dose)/100 μl. After the cells were cultured in 5% CO2 at 37° C. for 5 days, 20 μl of MTT solution [3-(4,5-dimethyl-2-thiazolyl)-2,5-diphenyl-2H-tetrazolium bromide; Sigma] (diluted with PBS to 7.5 mg/ml) was added to each well, for another 24-hour incubation. After the culture medium was discarded, 100 μl of a solvent (prepared by adding 10% Triton X 100 (v/v) and 0.4% hydrochloric acid to isopropanol) was added to each well, to solubilize the generated formazan. The absorbance at 540 nm or 690 nm was measured with a microplate reader. Based on the suppression ratio (%) of the cellular death of the MRC-5 cell via HSV-1 replication, the EC50 value of the test drug was calculated.

VZV (strain CaQu) = experiment: Anti-VZV activity assay (plaque reduction in HEF cells); format: cell-based, varicella zoster virus (VZV); settings: human embryonic fibroblast (HEF) cells infected with VZV strain CaQu, plaque count after 3 to 4 days
Protocol: This assay was carried out in accordance with the method described by Shigeta S. (The Journal of Infectious Diseases, 147, 3, 576-584 (1983). Specifically, human embryonic fibroblast (HEF) cells were inoculated in a 96-well microtiter plate, using a growth culture medium [Eagle MEM (Nissui) supplemented with 10% (v/v) fetal bovine serum (FBS; Sigma)], for culturing in 5% CO2 at 37° C. for 4 days until a monolayer was formed. After washing the cells with a maintenance medium, the cells were inoculated with 100 μl/well of VZV (strain CaQu) which had been diluted to 20 to 30 pfu/100 μl with the maintenance medium (Eagle MEM supplemented with 2% FBS). The plate was centrifuged at 2,000 rpm for 20 minutes at room temperature and then incubated at 37° C. for 3 hours in an atmosphere of 5% CO2 to infect with VZV. After washing three times with the maintenance medium, 100 μl of each test drug diluted to an appropriate concentration with the maintenance medium was added to each well. After culturing the cells at 37° C. for 3 to 4 days in an atmosphere of 5% CO2, the cells were fixed with 100 μl/well of 10% formalin/PBS for 2 to 3 hours. […] After discarding the fixing solution and culture supernatant and subsequently washing the plate with water, a staining solution (0.025% Crystal Violet) was added at 50 μl/well for staining for 2 to 3 minutes, and then, the plate was washed with water and dried at 37° C. Cellular death is induced in the HEF cells infected with VZV, so that plaques of the dead cells are formed in the monolayer of the HEF cells.

[1] = oral, methyl cellulose suspension
[2] = asterisk: oral, dissolved in 20% Cremophor EL/20% PEG 400/60% H2O solution
[3] = Human alphaherpesvirus 1, MRC5, 120 h
[4] = Human alphaherpesvirus 3, read-out: EC50 value (concentration to inhibit 50% of the plaques)

## Nc1nc(-c2ccc(NC(=O)CN(C(=O)c3ccc(F)cc3)c3ccc4ncsc4c3)cc2)cs1 [Comparative Compound A, reference compound]
HSV-1 strain WT-51; [1]
  Inhibitory activity (%) (disease inhibitory rate vs placebo from AUC of mean disease score): 38%

## COc1ccc(N(CC(=O)Nc2ccc(-c3csc(N)n3)cc2)C(=O)C2CCS(=O)(=O)CC2)cc1 [Comparative Compound B, reference compound]
HSV-1 strain WT-51; [1]
  Inhibitory activity (%) (disease inhibitory rate vs placebo from AUC of mean disease score): 2%

## COc1ccc(N(CC(=O)Nc2ccc(-c3csc(N)n3)cc2)C(=O)C2CCC(O)CC2)cc1 (stereo not drawn) [Comparative Compound C, reference compound]
HSV-1 strain WT-51; [1]
  Inhibitory activity (%) (disease inhibitory rate vs placebo from AUC of mean disease score): 44%

## Nc1nc(-c2ccc(NC(=O)CN(C(=O)C3CCS(=O)(=O)CC3)c3ccc4c(c3)CCC4)cc2)cs1 [Comparative Compound D, reference compound]
HSV-1 strain WT-51; [1]
  Inhibitory activity (%) (disease inhibitory rate vs placebo from AUC of mean disease score): 43%

## Cc1cccc(C)c1N(CC(=O)Nc1ccc(-c2cocn2)cc1)C(=O)C1CCS(=O)(=O)CC1 [Example 1, N-(2,6-dimethylphenyl)-N-(2-([4-(1,3-oxazol-4-yl)phenyl]amino)-2-oxoethyl)tetrahydro-2H-thiopyran-4-carboxamide 1,1-dioxide]
HSV-1 strain WT-51; [2]
  Inhibitory activity (%) (disease inhibitory rate vs placebo from AUC of mean disease score): *93%

## Cc1ccc(N(CC(=O)Nc2ccc(-c3cocn3)cc2)C(=O)C2CCS(=O)(=O)CC2)c(C)c1 [Example 6, N-(2,4-dimethylphenyl)-N-(2-{[4-(1,3-oxazol-4-yl)phenyl]amino}-2-oxoethyl)tetrahydro-2H-thiopyran-4-carboxamide 1,1-dioxide]
HSV-1 strain WT-51; [1]
  Inhibitory activity (%) (disease inhibitory rate vs placebo from AUC of mean disease score): 92%

## O=C(CN(C(=O)C1CCS(=O)(=O)CC1)c1ccc2c(c1)CCC2)Nc1ccc(-c2cocn2)cc1 [Example 11, N-(2,3-dihydro-1H-inden-5-yl)-N-(2-{[4-(1,3-oxazol-4-yl)phenyl]amino)-2-oxoethyl)tetrahydro-2H-thiopyran-4-carboxamide 1,1-dioxide]
HSV-1 (strain KOS); [3]
  EC50: 40 nM
VZV (strain CaQu); [4]
  EC50: 60 nM

## Cc1ccc(N(CC(=O)Nc2ccc(-c3cocn3)cc2)C(=O)C2CCS(=O)(=O)CC2)cc1F [Example 14, N-(3-fluoro-4-methylphenyl)-N-(2-{[4-(1,3-oxazol-4-yl)phenyl]amino)-2-oxoethyl)tetrahydro-2H-thiopyran-4-carboxamide 1,1-dioxide]
HSV-1 strain WT-51; [1]
  Inhibitory activity (%) (disease inhibitory rate vs placebo from AUC of mean disease score): 98%

## Cc1cccc(C)c1N(CC(=O)Nc1ccc(-c2ncon2)cc1)C(=O)C1CCS(=O)(=O)CC1 [Example 27, N-(2,6-dimethylphenyl)-N-(2-([4-<(1,2,4-oxadiazol-3-yl)phenyl]amino}-2-oxoethyl)tetrahydro-2H-thiopyran-4-carboxamide 1,1-dioxide]
HSV-1 (strain KOS)
  EC50: 60 nM
VZV (strain CaQu); read-out: EC50 value (concentration to inhibit 50% of the plaques)
  EC50: 100 nM

## Cc1cc(N(CC(=O)Nc2ccc(-c3ncon3)cc2)C(=O)C2CCS(=O)(=O)CC2)ccc1Cl [Example 37, N-(4-chloro-3-methylphenyl)-N-(2-{[4-(1,2,4-oxadiazol-3-yl)phenyl]amino)-2-oxoethyl)tetrahydro-2H-thiopyran-4-carboxamide 1,1-dioxide]
HSV-1 strain WT-51; [1]
  Inhibitory activity (%) (disease inhibitory rate vs placebo from AUC of mean disease score): 100%

## Cc1cccc(C)c1N(CC(=O)Nc1ccc(-n2nccn2)cc1)C(=O)C1CCS(=O)(=O)CC1 [Example 98]
HSV-1 (strain KOS); [3]
  EC50: 42 nM
VZV (strain CaQu); [4]
  EC50: 140 nM
HSV-1 strain WT-51; [2]
  Inhibitory activity (%) (disease inhibitory rate vs placebo from AUC of mean disease score): *95%

## Cc1cccc(C)c1N(CC(=O)Nc1ccc(-c2ccccn2)cc1)C(=O)C1CCS(=O)(=O)CC1 [Example 125]
HSV-1 (strain KOS); [3]
  EC50: 28 nM
VZV (strain CaQu); [4]
  EC50: 190 nM
HSV-1 strain WT-51; [2]
  Inhibitory activity (%) (disease inhibitory rate vs placebo from AUC of mean disease score): *80%
